Source: the NIST ThermoML archive (doi:10.1016/j.fluid.2016.02.031)

Assay: refractive index (Na D-line) (dimensionless); xn = mol fraction of the nth substance listed
Conditions: 100 kPa, Liquid, Standard Abbe refractometry

OCCCO [propan-1,3-diol] + CCC(C)=O
refractive index
Conditions | 288.15 K | 293.15 K | 298.15 K | 303.15 K | 308.15 K | 313.15 K | 318.15 K | 323.15 K | 328.15 K | 333.15 K
x1 = 0.1052 | 1.38816 | 1.3857 | 1.38318 | 1.38072 | 1.3783 | 1.37575 | 1.37324 | 1.3706 | 1.36798 | 1.36512
x1 = 0.2004 | 1.39411 | 1.39177 | 1.38937 | 1.38701 | 1.38469 | 1.38226 | 1.37988 | 1.37728 | 1.37479 | 1.37205
x1 = 0.3002 | 1.40019 | 1.39791 | 1.39561 | 1.39336 | 1.39119 | 1.38891 | 1.38656 | 1.38422 | 1.38186 | 1.3793
x1 = 0.4003 | 1.40646 | 1.4043 | 1.40216 | 1.40002 | 1.39791 | 1.39575 | 1.39357 | 1.39132 | 1.38903 | 1.38657
x1 = 0.4999 | 1.41261 | 1.41059 | 1.40857 | 1.40654 | 1.40452 | 1.40246 | 1.40036 | 1.39822 | 1.39608 | 1.3938
x1 = 0.5992 | 1.41868 | 1.4168 | 1.4149 | 1.41298 | 1.41104 | 1.4091 | 1.40712 | 1.40508 | 1.40306 | 1.40096
x1 = 0.6992 | 1.42474 | 1.42295 | 1.42116 | 1.41936 | 1.41754 | 1.41566 | 1.41382 | 1.41196 | 1.41006 | 1.4081
x1 = 0.7989 | 1.43046 | 1.42881 | 1.42712 | 1.42544 | 1.42374 | 1.42201 | 1.4203 | 1.41857 | 1.4168 | 1.41497
x1 = 0.8998 | 1.43588 | 1.43434 | 1.43277 | 1.43123 | 1.42967 | 1.42812 | 1.42654 | 1.42496 | 1.42335 | 1.42166
x1 = 1 | 1.44073 | 1.43932 | 1.43792 | 1.43654 | 1.43513 | 1.43375 | 1.43232 | 1.43087 | 1.42945 | 1.42803

c1ccncc1 [pyridine] + CCC(C)=O
refractive index
Conditions | 288.15 K | 293.15 K | 298.15 K | 303.15 K | 308.15 K | 313.15 K | 318.15 K | 323.15 K | 328.15 K | 333.15 K
x1 = 0.1006 | 1.39357 | 1.39094 | 1.3883 | 1.38577 | 1.38311 | 1.38031 | 1.37775 | 1.37505 | 1.37234 | 1.36942
x1 = 0.2019 | 1.40586 | 1.40321 | 1.40056 | 1.39791 | 1.39527 | 1.3926 | 1.38992 | 1.38721 | 1.38453 | 1.38158
x1 = 0.3002 | 1.41813 | 1.41548 | 1.41282 | 1.41015 | 1.40751 | 1.40483 | 1.40214 | 1.39946 | 1.39666 | 1.39394
x1 = 0.4004 | 1.43104 | 1.42836 | 1.42568 | 1.42298 | 1.4203 | 1.4176 | 1.41489 | 1.41218 | 1.40942 | 1.40669
x1 = 0.4999 | 1.44407 | 1.44138 | 1.43868 | 1.43597 | 1.43325 | 1.43052 | 1.42779 | 1.42502 | 1.42228 | 1.41944
x1 = 0.597 | 1.45674 | 1.45401 | 1.4513 | 1.44857 | 1.44585 | 1.44311 | 1.44039 | 1.43765 | 1.43488 | 1.43213
x1 = 0.6998 | 1.4705 | 1.46776 | 1.46502 | 1.46227 | 1.45952 | 1.45678 | 1.45404 | 1.4513 | 1.44853 | 1.44586
x1 = 0.7945 | 1.48331 | 1.48055 | 1.47779 | 1.47504 | 1.47226 | 1.4695 | 1.46675 | 1.46402 | 1.46124 | 1.45866
x1 = 0.8962 | 1.49734 | 1.49455 | 1.49176 | 1.48899 | 1.4862 | 1.48343 | 1.48066 | 1.47793 | 1.47513 | 1.4726
x1 = 1 | 1.51204 | 1.50923 | 1.50636 | 1.50355 | 1.50076 | 1.49796 | 1.49522 | 1.49245 | 1.48962 | 1.48708
